{
  "source": "ChEMBL document CHEMBL1124336",
  "about": "“5-Isoquinolinesulfonamide derivatives. 2. Synthesis and vasodilatory activity of N-(2-aminoethyl)-5-isoquinolinesulfonamide derivatives” (1989)",
  "key": {"[1]": {"test_system": "Canis familiaris", "experiment": "Increasing effect on vertebral blood flow in anesthetized dogs compared to the effect of trapidil", "type": "functional, Canis lupus familiaris"}, "[2]": {"test_system": "Canis familiaris", "experiment": "Increasing effect on femoral blood flow in anesthetized dogs compared to the effect of trapidil", "type": "functional, Canis lupus familiaris, Artery"}, "[3]": {"test_system": "Canis familiaris", "experiment": "Compound was tested for its hemodynamic effect for percentage change in heart rate in anesthetized Dogs", "type": "functional, Canis lupus familiaris"}, "[4]": {"test_system": "Canis familiaris", "experiment": "Compound was tested for its hemodynamic effect for percentage change in vertebral blood flow in anesthetized dogs", "type": "functional, Canis lupus familiaris"}, "[5]": {"test_system": "Canis familiaris", "experiment": "Compound was tested for its hemodynamic effect for percentage change in coronary blood flow in anesthetized Dogs", "type": "functional, Canis lupus familiaris, Artery"}, "[6]": {"test_system": "Canis familiaris", "experiment": "Compound was tested for its hemodynamic effect for percentage change in mean blood pressure in anesthetized Dogs", "type": "functional, Canis lupus familiaris"}},
  "data": [
    {"smiles": "Cl.NNS(=O)(=O)c1cccc2cnccc12", "values": [
      {"measurement": "Vertebral blood flow", "setting": "[1]", "value": ">100"}
    ]},
    {"smiles": "CN(CCNS(=O)(=O)c1cccc2cnccc12)C1CCCCC1", "values": [
      {"measurement": "Femoral blood flow", "setting": "[2]", "value": 0.83},
      {"measurement": "Vertebral blood flow", "setting": "[1]", "value": 1.7}
    ]},
    {"smiles": "O=[N+]([O-])c1ccc(CNCCNS(=O)(=O)c2cccc3cnccc23)cc1", "values": [
      {"measurement": "Femoral blood flow", "setting": "[2]", "value": 2.5},
      {"measurement": "Vertebral blood flow", "setting": "[1]", "value": 1.5}
    ]},
    {"smiles": "CCCCCCCCN(CCN)S(=O)(=O)c1cccc2cnccc12", "values": [
      {"measurement": "Vertebral blood flow", "setting": "[1]", "value": 0.92}
    ]},
    {"smiles": "CCCCCCN(CCN)S(=O)(=O)c1cccc2cnccc12", "values": [
      {"measurement": "Change", "setting": "[3]", "value": 2.8, "unit": "%"},
      {"measurement": "Vertebral blood flow", "setting": "[1]", "value": 0.12},
      {"measurement": "Change", "setting": "[4]", "value": 91.4, "unit": "%"},
      {"measurement": "Change", "setting": "[5]", "value": 53.6, "unit": "%"},
      {"measurement": "Change", "setting": "[6]", "value": -11.4, "unit": "%"}
    ]},
    {"smiles": "CCCCCCN(CCCCCC)CCNS(=O)(=O)c1cccc2cnccc12", "values": [
      {"measurement": "Femoral blood flow", "setting": "[2]", "value": 1.2},
      {"measurement": "Vertebral blood flow", "setting": "[1]", "value": 0.48}
    ]},
    {"smiles": "O=S(=O)(NCCNC1CCCCC1)c1cccc2cnccc12", "values": [
      {"measurement": "Vertebral blood flow", "setting": "[1]", "value": 1.4}
    ]},
    {"smiles": "CN(C)CCNS(=O)(=O)c1cccc2cnccc12", "values": [
      {"measurement": "Vertebral blood flow", "setting": "[1]", "value": 1.4}
    ]},
    {"smiles": "CCCCCNCCNS(=O)(=O)c1cccc2cnccc12", "values": [
      {"measurement": "Femoral blood flow", "setting": "[2]", "value": 1},
      {"measurement": "Vertebral blood flow", "setting": "[1]", "value": 2.4}
    ]},
    {"smiles": "NCCCNS(=O)(=O)c1cccc2cnccc12", "values": [
      {"measurement": "Femoral blood flow", "setting": "[2]", "value": 3.6},
      {"measurement": "Vertebral blood flow", "setting": "[1]", "value": 5.1}
    ]},
    {"smiles": "CCCCCCCCCCNCCNS(=O)(=O)c1cccc2cnccc12", "values": [
      {"measurement": "Vertebral blood flow", "setting": "[1]", "value": 0.49}
    ]},
    {"smiles": "NCCCCCCNS(=O)(=O)c1cccc2cnccc12", "values": [
      {"measurement": "Femoral blood flow", "setting": "[2]", "value": 2.4},
      {"measurement": "Vertebral blood flow", "setting": "[1]", "value": 1.4}
    ]},
    {"smiles": "CN(CCN)S(=O)(=O)c1cccc2cnccc12", "values": [
      {"measurement": "Vertebral blood flow", "setting": "[1]", "value": 1.6}
    ]},
    {"smiles": "O=S(=O)(NCCNCc1ccccc1Cl)c1cccc2cnccc12", "values": [
      {"measurement": "Femoral blood flow", "setting": "[2]", "value": 2.6},
      {"measurement": "Vertebral blood flow", "setting": "[1]", "value": 1.5}
    ]},
    {"smiles": "O=S(=O)(NCCNCc1ccccc1)c1cccc2cnccc12", "values": [
      {"measurement": "Vertebral blood flow", "setting": "[1]", "value": 0.57}
    ]},
    {"smiles": "CCCCCCNCCNS(=O)(=O)c1cccc2cnccc12", "values": [
      {"measurement": "Change", "setting": "[3]", "value": 3.9, "unit": "%"},
      {"measurement": "Femoral blood flow", "setting": "[2]", "value": 0.23},
      {"measurement": "Vertebral blood flow", "setting": "[1]", "value": 0.17},
      {"measurement": "Change", "setting": "[4]", "value": 93.7, "unit": "%"},
      {"measurement": "Change", "setting": "[5]", "value": 45.7, "unit": "%"},
      {"measurement": "Change", "setting": "[6]", "value": -16.8, "unit": "%"}
    ]},
    {"smiles": "O=S(=O)(c1cccc2cnccc12)N(CCNCc1ccccc1)Cc1ccccc1", "values": [
      {"measurement": "Vertebral blood flow", "setting": "[1]", "value": 1.8}
    ]},
    {"smiles": "CNCCNS(=O)(=O)c1cccc2cnccc12", "values": [
      {"measurement": "Femoral blood flow", "setting": "[2]", "value": 1.7},
      {"measurement": "Vertebral blood flow", "setting": "[1]", "value": 3.7}
    ]},
    {"smiles": "CCNCCN(CC)S(=O)(=O)c1cccc2cnccc12", "values": [
      {"measurement": "Femoral blood flow", "setting": "[2]", "value": 1.1},
      {"measurement": "Vertebral blood flow", "setting": "[1]", "value": 0.78}
    ]},
    {"smiles": "COc1ccc(CNCCNS(=O)(=O)c2cccc3cnccc23)cc1OC", "values": [
      {"measurement": "Femoral blood flow", "setting": "[2]", "value": 3.7},
      {"measurement": "Vertebral blood flow", "setting": "[1]", "value": 4.3}
    ]},
    {"smiles": "CC(C)N(CCN)S(=O)(=O)c1cccc2cnccc12", "values": [
      {"measurement": "Vertebral blood flow", "setting": "[1]", "value": 3.3}
    ]},
    {"smiles": "O=S(=O)(NCCNCc1cccc(Cl)c1)c1cccc2cnccc12", "values": [
      {"measurement": "Femoral blood flow", "setting": "[2]", "value": 0.83},
      {"measurement": "Vertebral blood flow", "setting": "[1]", "value": 0.26}
    ]},
    {"smiles": "CC(C)N(CCNS(=O)(=O)c1cccc2cnccc12)C(C)C", "values": [
      {"measurement": "Vertebral blood flow", "setting": "[1]", "value": 2.7}
    ]},
    {"smiles": "CCCCNCCNS(=O)(=O)c1cccc2cnccc12", "values": [
      {"measurement": "Femoral blood flow", "setting": "[2]", "value": 1.3},
      {"measurement": "Vertebral blood flow", "setting": "[1]", "value": 4.6}
    ]},
    {"smiles": "COc1ccc(CNCCNS(=O)(=O)c2cccc3cnccc23)cc1", "values": [
      {"measurement": "Femoral blood flow", "setting": "[2]", "value": 0.43},
      {"measurement": "Vertebral blood flow", "setting": "[1]", "value": 0.38}
    ]},
    {"smiles": "CCCCCCCCNCCNS(=O)(=O)c1cccc2cnccc12", "values": [
      {"measurement": "Vertebral blood flow", "setting": "[1]", "value": 0.53}
    ]},
    {"smiles": "CCCNCCNS(=O)(=O)c1cccc2cnccc12", "values": [
      {"measurement": "Femoral blood flow", "setting": "[2]", "value": 1.6},
      {"measurement": "Vertebral blood flow", "setting": "[1]", "value": 2.7}
    ]},
    {"smiles": "O=S(=O)(NCCNCCc1ccccc1)c1cccc2cnccc12", "values": [
      {"measurement": "Femoral blood flow", "setting": "[2]", "value": 0.32},
      {"measurement": "Vertebral blood flow", "setting": "[1]", "value": 0.31}
    ]},
    {"smiles": "NCCNS(=O)(=O)c1cccc2cnccc12", "values": [
      {"measurement": "Femoral blood flow", "setting": "[2]", "value": 2},
      {"measurement": "Vertebral blood flow", "setting": "[1]", "value": 1.8}
    ]},
    {"smiles": "NCCCCNS(=O)(=O)c1cccc2cnccc12", "values": [
      {"measurement": "Femoral blood flow", "setting": "[2]", "value": 2.7},
      {"measurement": "Vertebral blood flow", "setting": "[1]", "value": 4.2}
    ]},
    {"smiles": "CCCCN(CCN)S(=O)(=O)c1cccc2cnccc12", "values": [
      {"measurement": "Vertebral blood flow", "setting": "[1]", "value": 0.27}
    ]},
    {"smiles": "NCCN(Cc1ccccc1)S(=O)(=O)c1cccc2cnccc12", "values": [
      {"measurement": "Vertebral blood flow", "setting": "[1]", "value": 1.92}
    ]},
    {"smiles": "CCCCCCN(CCC)CCNS(=O)(=O)c1cccc2cnccc12", "values": [
      {"measurement": "Femoral blood flow", "setting": "[2]", "value": 1.9},
      {"measurement": "Vertebral blood flow", "setting": "[1]", "value": 1.7}
    ]},
    {"smiles": "CNCCN(C)S(=O)(=O)c1cccc2cnccc12", "values": [
      {"measurement": "Femoral blood flow", "setting": "[2]", "value": 1.5},
      {"measurement": "Vertebral blood flow", "setting": "[1]", "value": 1.3}
    ]},
    {"smiles": "CCNCCNS(=O)(=O)c1cccc2cnccc12", "values": [
      {"measurement": "Femoral blood flow", "setting": "[2]", "value": 2.7},
      {"measurement": "Vertebral blood flow", "setting": "[1]", "value": 4.2}
    ]},
    {"smiles": "CCN(CCN)S(=O)(=O)c1cccc2cnccc12", "values": [
      {"measurement": "Vertebral blood flow", "setting": "[1]", "value": 1.3}
    ]},
    {"smiles": "O=S(=O)(NCCNCc1ccc(Cl)cc1)c1cccc2cnccc12", "values": [
      {"measurement": "Femoral blood flow", "setting": "[2]", "value": 1},
      {"measurement": "Vertebral blood flow", "setting": "[1]", "value": 0.25}
    ]},
    {"smiles": "COc1ccc([C@@H]2Sc3ccccc3N(CCN(C)C)C(=O)[C@@H]2OC(C)=O)cc1", "note": "[DILTIAZEM]", "values": [
      {"measurement": "Change", "setting": "[3]", "value": -8, "unit": "%"},
      {"measurement": "Femoral blood flow", "setting": "[2]", "value": 0.21},
      {"measurement": "Vertebral blood flow", "setting": "[1]", "value": 0.15},
      {"measurement": "Change", "setting": "[4]", "value": 180, "unit": "%"},
      {"measurement": "Change", "setting": "[5]", "value": 91.3, "unit": "%"},
      {"measurement": "Change", "setting": "[6]", "value": -28.9, "unit": "%"}
    ]}
  ]
}
